Tests used:
naïve CD4+T Cells = assay: T helper cell synthesis of pro-inflammatory (IFN-γ) and anti-inflammatory (IL-5) cytokines; assay type: cell-based, human; details: seven days
Method: To examine the effect of compounds and methods of the present invention on T helper cell synthesis of pro-inflammatory and anti-inflammatory cytokines, the following studies were performed. Human cord blood naive CD4+T Cells (AllCells LLC, Emeryville, Calif.) were stimulated (i.e., T cell receptor (TCR) stimulation) by seeding into 96-well culture dishes coated with 5 μg/ml anti-CD3 antibody (clone UCHT1, R&D Systems, Minneapolis, Minn.), and 5 μg/ml anti-CD28 antibody (clone ANC28.1/D10, Ancell Corporation, Bayport, Minn.), and cultured at 37° C., 5% CO2 in RPMI-1640 (Mediatech Inc., Hemdon, Va.) containing 1% FBS, 1 U/ml penicillin-1 μg/ml streptomycin (Invitrogen Corporation, Carlsbad, Calif.), and 50 U/ml IL-2 (Roche Diagnostics Corporation, Indianapolis, Ind.). At time of seeding, cells were treated according to one of the following conditions: 1) media alone (Con); 2) 10 ng/ml IL4, 10 μg/ml anti-IFN-γ antibody, and 10 μg/ml anti-IL-12 antibody (R&D Systems, Minneapolis, Minn.); or 3) 2 ng/ml IL-12 and 10 μg/ml anti-IL-4 antibody. […] The cell-conditioned media was collected and analyzed for IFN-γ levels (a pro-inflammatory cytokine) and IL-5 levels (an anti-inflammatory cytokine) using MS2400 Human Tissue Culture Kits (MesoScale Technologies, Gaithersburg, Md.) according to the manufacturer's instructions.

naïve T helper cells = assay: Th1 cell differentiation: IFN-γ secretion after second and third TCR stimulation following washout; assay type: cell-based, human
Method: The effectiveness of compounds of the present invention at reducing Th1 differentiation was examined as follows. Th1 differentiation was induced by culturing anti-CD3 stimulated T cells in the presence of exogenous IL-12. Human cord blood naive T helper cells (AllCells LLC, Emeryville, Calif.) were stimulated (i.e., T cell receptor (TCR) stimulation) by seeding into 96-well culture dishes coated with 5 μg/ml anti-CD3 antibody (clone UCHT1, R&D Systems, Minneapolis, Minn.), and 5 μg/ml anti-CD28 antibody (clone ANC28.1/D10, Ancell Corporation, Bayport, Minn.), and cultured at 37° C., 5% CO2 in RPMI-1640 (Mediatech Inc., Hemdon, Va.) containing 1% FBS, 1 U/ml penicillin-1 μg/ml streptomycin (Invitrogen Corporation, Carlsbad, Calif.), and 50 U/ml IL-2 (Roche Diagnostics Corporation, Indianapolis, Ind.). At time of seeding, cells were cultured with media alone or with media containing 2 ng/ml IL-12 and 10 μg/ml anti-IL-4 to induce Th1 cell differentiation. […]
The cells were then collected, washed twice with RPMI-1640 media containing 1% FBS, and counted before equal numbers of cells per well were re-stimulated (second T cell receptor (TCR) stimulation following washout of all prior treatments) by re-seeding the cells into 96-well culture dishes coated with 5 μg/ml anti-CD3 antibody and 5 μg/ml anti-CD28 antibody. […] After 24 hours the conditioned media from the cells was collected and analyzed for IFN-γ levels using a MS2400 Tissue Culture Kit (MesoScale Technologies, Gaithersburg, Md.) according to the manufacturer's instructions.
Thirteen days after the second TCR stimulation described above, the cells were collected, washed twice with RPMI-1640 media containing 1% FBS, and counted before equal numbers of cells per well were stimulated a third time (third TCR stimulation) by re-seeding into 96-well culture dishes coated with 5 μg/ml anti-CD3 antibody and 5 μg/ml anti-CD28 antibody. […]
In another series of experiments, the effectiveness of compounds of the present invention at reducing Th1 differentiation was determined. […]

Cc1nc(C(=O)NCC(=O)O)c(O)c2ccc(Oc3ccccc3)cc12 [Compound A, [(4-Hydroxy-1-methyl-7-phenoxy-isoquinoline-3-carbonyl)-amino]-acetic acid]
IL-12-mediated increase in IFN-γ secretion (naïve CD4+T Cells; 2 ng/ml IL-12 and anti-IL-4 antibody): reduced the IL-12-mediated increase in IFN-γ secretion | IL-5 levels (naïve CD4+T Cells; 10 ng/ml IL4, anti-IFN-γ and anti-IL-12 antibody, vs IL-4 alone): increased IL-5 levels | IFN-γ secretion following the second TCR stimulation (naïve T helper cells; compound present only during first TCR stimulation (seven days) with IL-12, 24 hours after re-stimulation): reduced IFN-γ secretion | IFN-γ secretion after a third TCR stimulation (naïve T helper cells; compound present only during first TCR stimulation with IL-12, thirteen days after the second stimulation, 24 hours): decreased IFN-γ secretion
